We go through two compounds from patent US20080063720A1, “Delivery System” (priority 2004, published 2008).

Assay [1] deals with THP-1 differentiated macrophages. The experiment in a line: Brefeldin A effect on intranuclear accumulation of quantum dots. The conditions noted are these: Brefeldin A 20 μg/ml for 30 min, washed out before particles were added. It is filed as cell-based, human. Here is the method: In the studies referred to in FIGS. 1-10, Human THP-1 monocytes, the transformed epithelial cell lines HT-29, HCT-116 and T cell lymphoma cell line HUT-78 were obtained from the European Collection of Animal Cell Cultures (ECACC, Salisbury, UK). Cells were grown in RPMI 1640 medium supplemented with 10% heat-inactivated fetal bovine serum (FBS), 2 mM L-glutamine/L, 100 μg penicillin/ml and […], and incubated at 37° C. in 5% CO2. To induce monocyte to macrophage differentiation, THP-1 cells were cultured in the presence of 100 ng/ml PMA for 72 h.
Prior to incubation with CdTe particles THP-1 differentiated macrophages were incubated with the Golgi complex disrupter Brefeldin A for 30 min at 20 μg/ml. Following a wash out, green 2.2 nm size CdTe particles were added to the cells.

The test system of assay [2] is human primary macrophage cells. The experiment in a line: Thapsigargin effect on intranuclear accumulation of quantum dots. The format is cell-based. The following applies: thapsigargin 100 mM for 30 min, washed out before incubation with particles. Here is the method: Nuclear import inhibitor thapsigargin ([…]) was added to the cells for 30 min and subsequently washed out with pre-warmed culture medium prior to incubation with 2.2 nm size (green emitting) CdTe particles.

With `C[C@H]1CCC/C=C/[C@@H]2C[C@H](O)C[C@H]2[C@H](O)/C=C/C(=O)O1` [brefeldin A, Brefeldin A], the “effect on distribution and intranuclear accumulation of 2.2 nm green CdTe particles” value in assay [1] is “dispersion of quantum dots and partial block of intranuclear accumulation”.
With `C/C=C(/C)C(=O)O[C@H]1C(C)=C2[C@H]([C@@H]1OC(=O)CCCCCCC)[C@@](C)(OC(C)=O)C[C@H](OC(=O)CCC)[C@@]1(O)[C@H]2OC(=O)[C@@]1(C)O` [thapsigargin], the “effect on intranuclear accumulation of 2.2 nm green CdTe particles” value in assay [2] is “blockade of intranuclear accumulation”.
